Assay results: patent US20150157575A1, “Pharmaceutical Formulations Comprising Vilazodone” (Forest Laboratories Holdings Ltd., priority 2013, published 2015)
Where two headings read alike, the source gives them in different places.

Experiments:
[1] = target: dopamine reuptake site (Homo sapiens, UniProt Q01959); details: cited from earlier work
[2] = target: serotonin reuptake site (Homo sapiens, UniProt P31645); details: cited from earlier work
[3] = Study 1: single-dose pharmacokinetics in mild or moderate hepatic impairment and matched healthy controls; format: in vivo, human; details: for AUC(0-inf) / AUC(0-t) / Cmax / half-life / Tmax: both sexes, human, plasma, po, 20 mg, vilazodone 20 mg single oral dose
Protocol: The pharmacokinetics, tolerability, and safety of vilazodone were investigated in two separate trials involving participants with hepatic impairment, compared with healthy controls. An Open-label, parallel-group, single-dose pharmacokinetic studies, a single, oral dose of vilazodone (20 mg with increased hardness) was administered to participants with mild, moderate, or severe hepatic impairment or individually matched controls. Outcomes included pharmacokinetic parameters and safety (vital signs, clinical laboratory evaluations, ECG, and adverse events [AEs]). Plasma samples were analyzed using validated LC/MS/MS methods.
Data from two, open-label, parallel-group, single-dose pharmacokinetic studies investigated single-dose vilazodone (20 mg with increased hardness) in participants with hepatic impairment and normal hepatic function. The first study (Study 1) included participants with mild or moderate hepatic impairment and healthy controls. The second study (Study 2) included participants with severe hepatic impairment or healthy participants. These studies were both designed in accordance with the FDA guidance for evaluation of pharmacokinetics in the presence of hepatic impairment. The differences between the study protocols were minimal, so both methodologies are described together, with any differences noted below.
Participants were men and women, 18 to 70 years of age, with a body mass index (BMI) of 18-42 kg/m^2. Women were not pregnant or breastfeeding and agreed to utilize a medically accepted form of contraception during the study (as did men in Study 2). In Study 2, participants were also required to be non-smokers or light smokers (fewer than 10 cigarettes per day; there was no stipulation in Study 1) and to have a sitting pulse rate of 50-100 bpm at screening and prior to dosing on Day 1. […] Each healthy control was matched with a hepatically impaired participant. Control participants in the Study 1 were matched with a hepatically impaired individual according to age (±10 years), sex, and BMI (±15%). Control participants in Study 2 were matched with a hepatically impaired individual according to age (±5 years), sex, and weight (±10%).
Participants with hepatic dysfunction were classified according to the Child-Pugh hepatic dysfunction staging system as having mild (5-6 points) or moderate (7-9 points) hepatic impairment (Study 1), or severe impairment (10-15 points; Study 2). Participants with severe impairment also had chronic liver disease and/or compensated cirrhosis, as evidenced by liver biopsy, computerized tomography or ultrasonic evidence of hepatic fibrosis, clinical evidence of chronic liver disease, or a colloid shift on a liver-spleen scan. Exclusion criteria included the following: a clinical diagnosis or history of depression; treatment with antidepressants, anxiolytics, psychoactive medications (including herbal supplements), other serotonergic drugs, or drugs that inhibit CYP3A4 (eg, ketoconazole, diltiazem, macrolide antibiotics); a hypersensitivity to vilazodone or other SSRIs or 5-HT agonists; history or evidence of alcohol or substance abuse, cancer, human immunodeficiency virus, hepatitis B (Study 1 and healthy controls, both studies) hepatitis C (healthy controls, both studies), or other clinically significant illnesses or medical conditions. Participants with severe hepatic impairment were excluded if they had bleeding diathesis, advanced ascites requiring large-volume paracentesis within 1 week of dosing, esophageal bleeding within the previous 8 weeks, history of portosystemic shunt or hepatic transplant, or evidence of hepatic encephalopathy, hepatorenal syndrome, or other evidence of rapid hepatic deterioration.
Participants were not allowed to have previously taken vilazodone or participated in any clinical investigation requiring repeated blood draws within 60 days of dosing, or donated blood or plasma within 60 or 30 days, respectively.

[4] = Mild impairment/control, 20 mg single dose
[5] = Moderate impairment/control, 20 mg single dose
[6] = Control matched to Mild Impairment n = 8
[7] = Control matched to Moderate Impairment n = 8

Sequence of dopamine reuptake site (Q01959 whole entry): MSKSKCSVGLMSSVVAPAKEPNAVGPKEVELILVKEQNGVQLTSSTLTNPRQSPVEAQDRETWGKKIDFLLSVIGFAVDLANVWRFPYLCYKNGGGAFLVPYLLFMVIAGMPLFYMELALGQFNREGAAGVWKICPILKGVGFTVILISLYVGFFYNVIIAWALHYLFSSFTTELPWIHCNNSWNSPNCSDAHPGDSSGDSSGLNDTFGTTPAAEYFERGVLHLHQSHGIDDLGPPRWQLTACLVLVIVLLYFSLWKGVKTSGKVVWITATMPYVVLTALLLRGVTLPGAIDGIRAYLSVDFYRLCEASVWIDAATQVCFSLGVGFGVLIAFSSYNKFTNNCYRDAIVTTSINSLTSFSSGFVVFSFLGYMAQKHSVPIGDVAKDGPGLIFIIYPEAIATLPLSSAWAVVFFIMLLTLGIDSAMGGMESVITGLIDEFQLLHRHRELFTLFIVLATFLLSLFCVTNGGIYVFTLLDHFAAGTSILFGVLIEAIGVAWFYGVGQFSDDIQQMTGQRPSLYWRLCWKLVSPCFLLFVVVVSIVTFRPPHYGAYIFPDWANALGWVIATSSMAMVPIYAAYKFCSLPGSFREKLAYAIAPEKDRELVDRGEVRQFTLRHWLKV
Sequence of serotonin reuptake site (P31645 whole entry): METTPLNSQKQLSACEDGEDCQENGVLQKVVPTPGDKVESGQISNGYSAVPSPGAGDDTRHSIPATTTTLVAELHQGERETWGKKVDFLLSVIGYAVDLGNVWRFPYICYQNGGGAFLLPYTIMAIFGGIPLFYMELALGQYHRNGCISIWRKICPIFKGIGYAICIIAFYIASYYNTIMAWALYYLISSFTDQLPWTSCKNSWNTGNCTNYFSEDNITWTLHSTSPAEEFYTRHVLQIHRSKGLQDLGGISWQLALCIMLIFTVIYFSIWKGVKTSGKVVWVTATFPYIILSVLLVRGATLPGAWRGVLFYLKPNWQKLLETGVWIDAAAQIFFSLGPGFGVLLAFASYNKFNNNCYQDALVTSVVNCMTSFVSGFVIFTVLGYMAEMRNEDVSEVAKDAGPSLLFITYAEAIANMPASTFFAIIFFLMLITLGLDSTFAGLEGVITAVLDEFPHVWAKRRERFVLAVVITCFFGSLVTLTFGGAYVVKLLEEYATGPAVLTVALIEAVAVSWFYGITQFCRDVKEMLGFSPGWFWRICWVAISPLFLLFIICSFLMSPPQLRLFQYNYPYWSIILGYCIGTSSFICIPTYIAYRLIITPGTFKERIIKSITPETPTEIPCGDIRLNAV

For `Cl.N#Cc1ccc2[nH]cc(CCCCN3CCN(c4ccc5oc(C(N)=O)cc5c4)CC3)c2c1` [Vilazodone, 1-[4-(5-cyanoindol-3-yl)butyl]-4-(2-carbamoyl-benzofuran-5-yl)-piperazine hydrochloride], the “binding to dopamine reuptake site” value [1] is given as “not”, the “binding affinity to serotonin reuptake site” value [2] is given as “high affinity” and the “AUC0-t, Ratio of Geometric Means (%)” value [3, 4] is given as 97.7%. For the same compound, the “AUC0-∞, Ratio of Geometric Means (%)” value [3, 4] was 98.0%, the “Cmax, Ratio of Geometric Means (%)” value [3, 4] was 97.8% and the “AUC0-t, Ratio of Geometric Means (%)” value [3, 5] was 89.5%. For the same compound, the “AUC0-∞, Ratio of Geometric Means (%)” value [3, 5] was 90.5%, the “Cmax, Ratio of Geometric Means (%)” value [3, 5] was 97.2% and the AUC(0-inf) [3, 6] was 945 ± 169 ng·h/mL. It also gave an AUC(0-t) [3, 6] of 898 ± 168 ng·h/mL, a Cmax [3, 6] of 43.1 ± 13.1 ng/mL and a half-life [3, 6] of 25.9 ± 5.9 h. The Tmax ([3]; Control matched to Mild Impairment n = 8, read-out: Tmax (mean)) was 5 ± 1.5 h, the Tmax ([3]; Control matched to Mild Impairment n = 8, read-out: Tmax, Median) was 5 h and the AUC(0-inf) [3, 7] was 809 ± 231 ng·h/mL. It also gave an AUC(0-t) [3, 7] of 768 ± 229 ng·h/mL, a Cmax [3, 7] of 35.8 ± 10.7 ng/mL and a half-life [3, 7] of 25.4 ± 5.5 h. For the same compound, the Tmax ([3]; Control matched to Moderate Impairment n = 8, read-out: Tmax (mean)) was 4.9 ± 0.84 h, the Tmax ([3]; Control matched to Moderate Impairment n = 8, read-out: Tmax, Median) was 5 h and the AUC(0-inf) ([3]; Mild Impairment n = 8) was 1030 ± 506 ng·h/mL. It also gave an AUC(0-t) ([3]; Mild Impairment n = 8) of 984 ± 505 ng·h/mL, a Cmax ([3]; Mild Impairment n = 8) of 44.1 ± 16.5 ng/mL and a half-life ([3]; Mild Impairment n = 8) of 30.6 ± 8.2 h. For the same compound, the Tmax ([3]; Mild Impairment n = 8, read-out: Tmax (mean)) was 4.6 ± 1.6 h, the Tmax ([3]; Mild Impairment n = 8, read-out: Tmax, Median) was 4.5 h and the AUC(0-inf) ([3]; Moderate Impairment n = 8) was 727 ± 196 ng·h/mL. The AUC(0-t) ([3]; Moderate Impairment n = 8) was 683 ± 190 ng·h/mL, the Cmax ([3]; Moderate Impairment n = 8) was 34.2 ± 8.2 ng/mL and the half-life ([3]; Moderate Impairment n = 8) was 29.4 ± 11.4 h. For the same compound, the Tmax ([3]; Moderate Impairment n = 8, read-out: Tmax (mean)) was 4.1 ± 1.8 h, the Tmax ([3]; Moderate Impairment n = 8, read-out: Tmax, Median) was 4 h and the “mean recovery of unchanged vilazodone in urine over 96 hours” value ([3]; healthy participants and mild and moderate hepatic impairment, 20 mg single dose) was ≤ 1.3 % of the dose.
